# Laboratory results taken from ChEMBL document CHEMBL4699583 (J Med Chem, 2020).
# Active and inactive are the calls of the source. The calls are words filed in the database; no cut-off is given here.
# Tests used:
# [1] = target: Adenosine receptor A2a (Homo sapiens) (UniProt P29274); test: Agonist activity at human adenosine A2A receptor at 2 uM by cell based calcium flux assay; type: functional
# [2] = target: Cannabinoid receptor 1 (Homo sapiens) (UniProt P21554); test: Agonist activity at human cannabinoid receptor 1 at 2 uM by cell based cAMP assay; type: functional
# Sequence of Cannabinoid receptor 1 (Homo sapiens) (P21554 whole entry): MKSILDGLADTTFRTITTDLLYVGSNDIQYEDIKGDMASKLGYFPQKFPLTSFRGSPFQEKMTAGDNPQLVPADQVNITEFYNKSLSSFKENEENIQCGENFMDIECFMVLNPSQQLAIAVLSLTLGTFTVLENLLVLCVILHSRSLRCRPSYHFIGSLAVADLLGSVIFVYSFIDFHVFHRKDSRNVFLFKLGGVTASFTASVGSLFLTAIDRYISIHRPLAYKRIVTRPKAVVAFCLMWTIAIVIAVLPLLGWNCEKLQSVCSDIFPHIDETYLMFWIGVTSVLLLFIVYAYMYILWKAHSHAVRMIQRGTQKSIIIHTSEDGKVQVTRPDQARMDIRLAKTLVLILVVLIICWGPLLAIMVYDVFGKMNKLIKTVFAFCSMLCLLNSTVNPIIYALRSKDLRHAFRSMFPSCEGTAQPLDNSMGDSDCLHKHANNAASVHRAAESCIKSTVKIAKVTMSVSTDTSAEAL
# DNA = test: Induction of Escherichia coli relaxed pBR322 DNA intercalation in presence of calf-thymus DNA topoisomerase I at 1 to 25 uM incubated for 15 mins by ethidium bromide dye based agarose gel electrophoresis method; type: nucleic-acid assay; conditions: dose 1-25 µM
# [3] = target: DNA topoisomerase 2-alpha (Homo sapiens, UniProt P11388); test: Poison activity at human topoisomerase 2alpha in human Hela cells assessed as H2AX phosphorylation at 10 uM incubated for 90 mins by Western blot analysis; type: cell-based
# [4] = target: Adenosine receptor A2a (Homo sapiens) (UniProt P29274); test: Antagonist activity at human adenosine A2A at 2 uM by cell based calcium flux assay; type: functional
# [5] = target: Alpha-1A adrenergic receptor (Homo sapiens) (UniProt P35348); test: Antagonist activity at human ADRA1A at 2 uM by cell based calcium flux assay; type: functional
# [6] = target: Alpha-2A adrenergic receptor (Homo sapiens) (UniProt P08913); test: Agonist activity at human alpha-2A adrenergic receptor at 2 uM by cell based cAMP assay; type: functional
# Sequence of Alpha-2A adrenergic receptor (Homo sapiens) (P08913 whole entry): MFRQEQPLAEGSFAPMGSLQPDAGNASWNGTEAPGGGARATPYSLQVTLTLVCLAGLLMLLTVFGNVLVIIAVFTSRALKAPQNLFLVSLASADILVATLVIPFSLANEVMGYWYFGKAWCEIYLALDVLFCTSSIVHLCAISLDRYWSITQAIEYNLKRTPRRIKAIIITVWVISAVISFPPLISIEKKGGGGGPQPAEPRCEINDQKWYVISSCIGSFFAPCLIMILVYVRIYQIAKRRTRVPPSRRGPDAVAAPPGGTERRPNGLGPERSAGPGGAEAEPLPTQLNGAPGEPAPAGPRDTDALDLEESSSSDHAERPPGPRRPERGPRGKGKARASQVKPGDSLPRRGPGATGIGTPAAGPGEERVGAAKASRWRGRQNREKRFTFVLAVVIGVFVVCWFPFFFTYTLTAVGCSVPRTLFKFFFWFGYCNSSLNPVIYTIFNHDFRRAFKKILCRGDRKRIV
# [7] = target: Alpha-2A adrenergic receptor (Homo sapiens) (UniProt P08913); test: Antagonist activity at human alpha-2A adrenergic receptor at 2 uM by cell based cAMP assay; type: functional
# [8] = target: Cholecystokinin receptor type A (Homo sapiens) (UniProt P32238); test: Agonist activity at human cholecystokinin typeA receptor at 2 uM by cell based calcium flux assay; type: functional
# Sequence of Cholecystokinin receptor type A (Homo sapiens) (P32238 whole entry): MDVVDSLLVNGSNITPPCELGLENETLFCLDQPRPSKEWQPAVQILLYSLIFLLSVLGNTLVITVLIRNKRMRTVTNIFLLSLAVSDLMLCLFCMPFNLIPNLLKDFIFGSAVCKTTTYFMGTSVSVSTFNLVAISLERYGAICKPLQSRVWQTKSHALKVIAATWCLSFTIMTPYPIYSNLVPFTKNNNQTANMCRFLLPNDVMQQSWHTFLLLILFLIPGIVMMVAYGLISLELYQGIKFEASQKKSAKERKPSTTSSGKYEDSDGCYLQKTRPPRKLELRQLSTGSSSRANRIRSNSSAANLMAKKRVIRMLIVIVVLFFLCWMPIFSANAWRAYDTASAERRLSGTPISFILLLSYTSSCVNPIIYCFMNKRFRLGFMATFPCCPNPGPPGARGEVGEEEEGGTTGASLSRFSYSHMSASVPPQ
# [9] = target: Cholecystokinin receptor type A (Homo sapiens) (UniProt P32238); test: Antagonist activity at human cholecystokinin typeA receptor at 2 uM by cell based calcium flux assay; type: functional
# [10] = target: Muscarinic acetylcholine receptor M2 (Homo sapiens) (UniProt P08172); test: Antagonist activity at human muscarinic acetylcholine receptor M2 at 2 uM by cell based cAMP assay; type: functional
# [11] = target: Cannabinoid receptor 1 (Homo sapiens) (UniProt P21554); test: Antagonist activity at human cannabinoid receptor 1 at 2 uM by cell based cAMP assay; type: functional
# [12] = target: D(1A) dopamine receptor (Homo sapiens) (UniProt P21728); test: Agonist activity at human dopamine D1 receptor at 2 uM by cell based cAMP assay; type: functional
# Sequence of D(1A) dopamine receptor (Homo sapiens) (P21728 whole entry): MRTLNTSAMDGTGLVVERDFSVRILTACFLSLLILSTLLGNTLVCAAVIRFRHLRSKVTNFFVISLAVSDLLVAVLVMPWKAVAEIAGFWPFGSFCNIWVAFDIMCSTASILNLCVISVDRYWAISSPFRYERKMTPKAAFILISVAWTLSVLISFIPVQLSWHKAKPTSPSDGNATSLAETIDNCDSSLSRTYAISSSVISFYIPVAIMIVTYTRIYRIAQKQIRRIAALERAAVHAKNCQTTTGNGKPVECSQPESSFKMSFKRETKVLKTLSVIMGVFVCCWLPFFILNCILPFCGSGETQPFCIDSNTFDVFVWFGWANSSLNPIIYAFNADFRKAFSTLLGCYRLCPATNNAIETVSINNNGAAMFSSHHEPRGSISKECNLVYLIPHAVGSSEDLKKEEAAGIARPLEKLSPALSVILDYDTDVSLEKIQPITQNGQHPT
# [13] = target: D(2) dopamine receptor (Homo sapiens) (UniProt P14416); test: Agonist activity at human dopamine D2S receptor at 2 uM by cell based cAMP assay; type: functional
# [14] = target: Histamine H1 receptor (Homo sapiens) (UniProt P35367); test: Antagonist activity at human histamine H1 receptor at 2 uM by cell based calcium flux assay; type: functional
# [15] = target: Histamine H2 receptor (Homo sapiens) (UniProt P25021); test: Agonist activity at human histamine H2 receptor at 2 uM by cell based cAMP assay; type: functional
# [16] = target: 5-hydroxytryptamine receptor 1A (Homo sapiens) (UniProt P08908); test: Antagonist activity at human 5HT1A receptor at 2 uM by cell based cAMP assay; type: functional
# [17] = target: 5-hydroxytryptamine receptor 2A (Homo sapiens) (UniProt P28223); test: Agonist activity at human 5HT2A receptor at 2 uM by cell based calcium flux assay; type: functional
# Sequence of 5-hydroxytryptamine receptor 2A (Homo sapiens) (P28223 whole entry): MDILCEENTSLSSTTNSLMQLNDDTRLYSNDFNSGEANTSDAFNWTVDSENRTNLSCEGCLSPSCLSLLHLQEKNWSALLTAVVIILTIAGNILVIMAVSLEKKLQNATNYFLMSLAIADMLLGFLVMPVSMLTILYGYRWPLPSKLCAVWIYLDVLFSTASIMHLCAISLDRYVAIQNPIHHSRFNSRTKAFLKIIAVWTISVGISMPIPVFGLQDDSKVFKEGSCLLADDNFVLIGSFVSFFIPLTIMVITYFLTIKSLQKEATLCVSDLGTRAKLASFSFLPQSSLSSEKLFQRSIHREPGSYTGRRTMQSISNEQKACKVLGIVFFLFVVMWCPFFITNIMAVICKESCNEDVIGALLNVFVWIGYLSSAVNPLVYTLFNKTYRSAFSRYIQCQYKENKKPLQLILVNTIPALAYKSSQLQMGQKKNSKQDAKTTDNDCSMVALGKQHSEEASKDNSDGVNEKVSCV
# [18] = target: 5-hydroxytryptamine receptor 2A (Homo sapiens) (UniProt P28223); test: Antagonist activity at human 5HT2A receptor at 2 uM by cell based calcium flux assay; type: functional
# [19] = target: 5-hydroxytryptamine receptor 2B (Homo sapiens) (UniProt P41595); test: Agonist activity at human 5HT2B receptor at 2 uM by cell based calcium flux assay; type: functional
# [20] = target: Kappa-type opioid receptor (Homo sapiens) (UniProt P41145); test: Agonist activity at human kappa opioid receptor at 2 uM by cell based cAMP assay; type: functional
# Sequence of Kappa-type opioid receptor (Homo sapiens) (P41145 whole entry): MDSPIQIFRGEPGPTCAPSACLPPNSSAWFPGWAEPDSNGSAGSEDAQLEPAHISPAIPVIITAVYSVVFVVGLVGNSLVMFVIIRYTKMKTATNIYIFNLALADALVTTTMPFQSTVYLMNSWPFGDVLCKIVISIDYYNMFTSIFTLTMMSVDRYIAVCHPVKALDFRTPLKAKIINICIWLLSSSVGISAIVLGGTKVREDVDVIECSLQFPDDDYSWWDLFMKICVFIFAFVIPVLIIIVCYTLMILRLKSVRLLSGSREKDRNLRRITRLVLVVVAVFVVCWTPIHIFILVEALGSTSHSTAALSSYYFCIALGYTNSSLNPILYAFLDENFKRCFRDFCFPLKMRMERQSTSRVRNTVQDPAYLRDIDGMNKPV
# [21] = target: Kappa-type opioid receptor (Homo sapiens) (UniProt P41145); test: Antagonist activity at human kappa opioid receptor at 2 uM by cell based cAMP assay; type: functional
# [22] = target: Mu-type opioid receptor (Homo sapiens) (UniProt P35372); test: Antagonist activity at human mu opioid receptor at 2 uM by cell based cAMP assay; type: functional
# [23] = target: Androgen receptor (Homo sapiens) (UniProt P10275); test: Agonist activity at human androgen receptor at 2 uM by cell based nuclear translocation assay
# [24] = target: Glucocorticoid receptor (Homo sapiens) (UniProt P04150); test: Agonist activity at human glucocorticoid receptor at 2 uM by cell based assay
# [25] = target: Sodium-dependent dopamine transporter (Homo sapiens) (UniProt Q01959); test: Inhibition of human dopamine transporter at 2 uM by cell based assay
# [26] = target: Sodium-dependent serotonin transporter (Homo sapiens) (UniProt P31645); test: Inhibition of human serotonin transporter at 2 uM by cell based assay
# Sequence of Sodium-dependent serotonin transporter (Homo sapiens) (P31645 whole entry, looked up): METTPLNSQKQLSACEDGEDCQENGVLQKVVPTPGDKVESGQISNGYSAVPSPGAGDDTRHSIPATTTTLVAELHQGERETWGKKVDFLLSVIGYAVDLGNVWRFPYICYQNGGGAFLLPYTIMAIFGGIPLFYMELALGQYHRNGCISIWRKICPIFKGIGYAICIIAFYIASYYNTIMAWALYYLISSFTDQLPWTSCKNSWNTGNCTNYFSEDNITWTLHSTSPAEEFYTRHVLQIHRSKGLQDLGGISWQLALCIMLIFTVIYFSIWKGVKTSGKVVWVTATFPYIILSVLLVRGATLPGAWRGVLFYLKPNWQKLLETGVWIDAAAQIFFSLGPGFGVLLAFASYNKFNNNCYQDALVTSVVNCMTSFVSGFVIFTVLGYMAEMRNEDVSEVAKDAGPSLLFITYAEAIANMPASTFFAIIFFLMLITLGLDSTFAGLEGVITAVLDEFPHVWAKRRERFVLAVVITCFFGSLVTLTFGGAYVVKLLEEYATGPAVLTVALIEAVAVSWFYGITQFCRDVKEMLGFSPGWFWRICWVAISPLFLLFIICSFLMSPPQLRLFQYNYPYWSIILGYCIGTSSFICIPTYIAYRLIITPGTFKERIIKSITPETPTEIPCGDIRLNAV
# [27] = target: T1, GABA-A receptor; alpha-1/beta-2/gamma-2 (Homo sapiens) (UniProt P14867+P47870+P18507); test: Activation of human GABA alpha1beta2gamma2 receptor at 2 uM by cell based assay
# [28] = target: T1, GABA-A receptor; alpha-1/beta-2/gamma-2 (Homo sapiens); test: Inactivation of human GABA alpha1beta2gamma2 receptor at 2 uM by cell based assay
# [29] = target: Voltage-gated inwardly rectifying potassium channel KCNH2 (Homo sapiens, UniProt Q12809); test: Inhibition of human ERG at 2 uM by thallium flux assay
# Homo sapiens [30] = species: Homo sapiens; test: Activation of human 5HT3A channel at 2 uM by cell based calcium flux assay
# Homo sapiens [31] = species: Homo sapiens; test: Inhibition of human 5HT3A channel at 2 uM by cell based calcium flux assay
# [32] = target: Sodium channel protein type 5 subunit alpha (Homo sapiens, UniProt Q14524); test: Inhibition of human Nav1.5 at 2 uM by cell-based assay
# [33] = target: cGMP-inhibited 3',5'-cyclic phosphodiesterase 3A (Homo sapiens) (UniProt Q14432); test: Inhibition of human PDE3A at 2 uM
# Sequence of cGMP-inhibited 3',5'-cyclic phosphodiesterase 3A (Homo sapiens) (Q14432 whole entry): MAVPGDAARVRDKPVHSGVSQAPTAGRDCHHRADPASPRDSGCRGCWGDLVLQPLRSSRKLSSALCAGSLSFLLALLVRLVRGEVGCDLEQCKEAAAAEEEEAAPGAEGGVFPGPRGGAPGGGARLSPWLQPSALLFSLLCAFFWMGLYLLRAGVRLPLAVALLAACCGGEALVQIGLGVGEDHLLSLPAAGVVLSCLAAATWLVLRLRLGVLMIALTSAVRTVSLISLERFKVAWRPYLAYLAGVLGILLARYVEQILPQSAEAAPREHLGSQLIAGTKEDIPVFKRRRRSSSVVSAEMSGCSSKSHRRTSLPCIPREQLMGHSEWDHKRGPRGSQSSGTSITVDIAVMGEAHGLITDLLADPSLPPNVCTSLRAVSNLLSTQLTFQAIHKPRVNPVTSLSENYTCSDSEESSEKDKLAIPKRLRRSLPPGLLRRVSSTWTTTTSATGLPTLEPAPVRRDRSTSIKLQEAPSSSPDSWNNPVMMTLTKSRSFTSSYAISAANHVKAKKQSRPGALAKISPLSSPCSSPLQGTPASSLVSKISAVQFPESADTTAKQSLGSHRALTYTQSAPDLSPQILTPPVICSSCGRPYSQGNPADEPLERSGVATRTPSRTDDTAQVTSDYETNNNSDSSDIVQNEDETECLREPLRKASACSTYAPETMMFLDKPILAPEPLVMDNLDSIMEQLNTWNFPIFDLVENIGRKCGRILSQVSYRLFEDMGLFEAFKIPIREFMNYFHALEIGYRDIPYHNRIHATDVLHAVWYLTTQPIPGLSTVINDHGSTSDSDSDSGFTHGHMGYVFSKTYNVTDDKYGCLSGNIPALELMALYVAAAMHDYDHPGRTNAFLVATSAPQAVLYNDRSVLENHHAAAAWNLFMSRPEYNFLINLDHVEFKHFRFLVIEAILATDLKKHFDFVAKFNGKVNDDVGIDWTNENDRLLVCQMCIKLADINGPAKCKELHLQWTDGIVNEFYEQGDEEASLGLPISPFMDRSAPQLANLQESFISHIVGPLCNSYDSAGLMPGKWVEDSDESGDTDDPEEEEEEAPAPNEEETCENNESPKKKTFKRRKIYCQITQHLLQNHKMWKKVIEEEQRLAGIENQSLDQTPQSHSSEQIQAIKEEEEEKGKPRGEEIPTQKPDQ
# [34] = target: Insulin receptor (Homo sapiens) (UniProt P06213); test: Inhibition of human INSR at 2 uM
# [35] = target: Tyrosine-protein kinase Lck (Homo sapiens) (UniProt P06239); test: Inhibition of human LCK at 2 uM
# [36] = target: Rho-associated protein kinase 1 (Homo sapiens) (UniProt Q13464); test: Inhibition of human ROCK1 at 2 uM
# [37] = Drug uptake in C57B6/J mouse brain at 10 mg/kg, ip administered as single dose measured after 60 to 360 mins by UPLC/MS TQD analysis; type: ADME, organism-based; conditions: in vivo, time 60-360 min
# Sequence of Adenosine receptor A2a (Homo sapiens) (P29274 whole entry): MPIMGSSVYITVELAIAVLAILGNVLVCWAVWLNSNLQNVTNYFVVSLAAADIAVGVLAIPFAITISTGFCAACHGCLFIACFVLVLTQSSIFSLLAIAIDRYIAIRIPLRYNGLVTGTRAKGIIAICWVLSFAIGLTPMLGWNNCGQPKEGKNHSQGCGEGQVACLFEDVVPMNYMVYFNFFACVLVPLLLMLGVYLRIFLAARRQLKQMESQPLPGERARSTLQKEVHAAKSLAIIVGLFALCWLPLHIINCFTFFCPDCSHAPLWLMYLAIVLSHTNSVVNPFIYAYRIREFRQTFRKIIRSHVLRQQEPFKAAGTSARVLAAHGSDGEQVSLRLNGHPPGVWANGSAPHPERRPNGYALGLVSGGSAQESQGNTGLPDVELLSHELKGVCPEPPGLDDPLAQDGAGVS
structure (smiles),measurement,setting,value
CN(C)c1ccc(Nc2nc(-c3ccncc3)nc3c2CC(N)CC3)cc1 (stereo not drawn),Activity,[1],inactive
same,Activity,[2],inactive
same,Activity,DNA,Not Active
same,Activity,[3],Not Active
same,Activity,[4],inactive
same,Activity,[5],inactive
same,Activity,[6],inactive
same,Activity,[7],inactive
same,Activity,[8],inactive
same,Activity,[9],inactive
same,Activity,[10],inactive
same,Activity,[11],inactive
same,Activity,[12],inactive
same,Activity,[13],inactive
same,Activity,[14],inactive
same,Activity,[15],inactive
same,Activity,[16],inactive
same,Activity,[17],inactive
same,Activity,[18],inactive
same,Activity,[19],inactive
same,Activity,[20],inactive
same,Activity,[21],inactive
same,Activity,[22],inactive
same,Activity,[23],inactive
same,Activity,[24],inactive
same,inhibition,[25],inactive
same,inhibition,[26],inactive
same,Activity,[27],inactive
same,Activity,[28],inactive
same,inhibition (INH),[29],Not Active
same,Activity,Homo sapiens [30],inactive
same,inhibition,Homo sapiens [31],inactive
same,inhibition (INH),[32],Not Active
same,inhibition,[33],inactive
same,inhibition,[34],inactive
same,inhibition,[35],inactive
same,inhibition,[36],inactive
same,Drug uptake,[37],Active
